Assay results from paper PMC3672506, “A useful EGFR-TK ligand for tumor diagnosis with SPECT: development of radioiodinated 6-(3-morpholinopropoxy)-7-ethoxy-4-(3′-iodophenoxy)quinazoline” (Annals of Nuclear Medicine, 2013).
Several values for one entry are separate records, joined by “and”; a condition that tells them apart may be missing. Identical values can stand only once.

Key:
EGFR-TK [1] = target: T1, EGFR-TK (Homo sapiens, UniProt P00533); assay: Inhibitory potency against EGFR-TK (SignaTECT protein kinase assay, [32P]ATP phosphorylation); format: biochemical; design: The EGF receptor used was an immunopurified receptor from human A431 cells (Promega, WI); purchased Promega; host or cells: A431 cells (endogenous receptor, immunopurified); conditions: immunopurified EGF receptor from human A431 cells, inhibition of phosphorylation by [32P]ATP, triplicate
Method: The inhibitory potency of the new derivatives against EGFR-TK was measured using a Signa TECT® Protein Kinase Assay System (Promega, WI) according to the protein tyrosine kinase assay protocol of the attached document. The EGF receptor used was an immunopurified receptor from human A431 cells (Promega, WI). […] The reaction was allowed to proceed for 10 min at 30 °C and then was stopped by the addition of guanidine hydrochloride solution (7.5 M, 13 μL). Each reaction mixture (12.5 μL) was spotted onto a biotin capture membrane. After all of the samples had been spotted, they were washed and rinsed as follows: 1 time for 30 s with 200 mL of 2 M NaCl, 3 times for 2 min each with 200 mL of 2 M NaCl, 4 times for 2 min each with 200 mL of 2 M NaCl in 1 % H3PO4, and 2 times for 30 s each with 100 mL of deionized water. The biotin capture membranes were dried on a piece of aluminum foil under a heat lamp for 5–10 min. The radioactivity trapped on the biotin capture membranes was counted with a liquid scintillation counter in 10 mL of scintillation fluid. The IC50 values were determined from sigmoid curves of the percent inhibition of [^32P]ATP radioactivity.
The inhibitory potency of new phenoxyquinazoline derivatives against EGFR-TK in A431 cell membranes was measured as the inhibition of EGFR phosphorylation by [^32P]ATP.

EGFR-TK [2] = target: T1, EGFR-TK; conditions: inhibitor 1 μM, A431 P2 membranes, 60 min, 25 °C
From the text: The difference between non-treatment and pretreatment data was examined by Student’s paired t test.

EGFR-TK [3] = system: EGFR-TK; design: method as in PMID 21058048, PMID 22354330; conditions: ref [21], [22]; cited from earlier work
A431 tumor = assay: Tumor uptake of radioiodinated ligands in A431 tumor-bearing mice; format: in vivo, balb/c nude mice; conditions: A431 tumor-bearing mice; for accumulation in tumors: i.v., 1 h post injection
Method: A suspension of 1 × 10^7 A431 cells in 0.1 mL of medium was inoculated subcutaneously in male balb/c nude mice (4 weeks old, 20–25 g, n = 3). After approximately 2 weeks, when the solid tumor had grown to optimal size, the mice were used for tumor uptake studies. [^125I]6a–d (37 kBq, 74 TBq/mmol) in 0.1 mL of saline was injected intravenously into tumor-bearing mice via the lateral tail vein. At 1 or 24 h after administration, the animals were sacrificed. Samples of tumor were excised and weighed. Radioactivity was measured using a well-type NaI(Tl) scintillation gamma counter. The results were expressed in terms of percentage of injected dose per gram of tumor.

[4] = design: method as in PMID 21058048, PMID 22354330; conditions: ref [21], [22]; cited from earlier work
[5] = target: EGFR-TK in A431 cell membranes (Homo sapiens, UniProt P00533); format: binding; conditions: A431 P2 membranes, Scatchard analysis
Method: Assays were carried out as described in the previous section. Crude P2 membrane fractions (A431or NALM6, 0.1 mg of protein, 10 μL) and [^125I]PYK (1–300 nM, 100 μL, 0.74 kBq) were used. […] Specific binding was defined as the difference between the total and non-specific binding. Scatchard plot analysis of the saturation binding data was used to determine the equilibrium dissociation constant (K d) and the maximal number of binding sites (B max).
The crude P2 membrane fraction from A431 or NAlM6 cells were used in further binding experiments for pharmacological characterization. […] While, in the NALM6 as a negative-EGFR leukemia cell line, [^125I]PYK binding to cell membranes was undetectable.

[6] = system: A431 epidermoid carcinoma cell line; conditions: in vitro; ref [12], [13]; read-out: IC50, cytotoxicity A431 epidermoid carcinoma cell line; cited from earlier work

T1 sequence (P00533 25-1210): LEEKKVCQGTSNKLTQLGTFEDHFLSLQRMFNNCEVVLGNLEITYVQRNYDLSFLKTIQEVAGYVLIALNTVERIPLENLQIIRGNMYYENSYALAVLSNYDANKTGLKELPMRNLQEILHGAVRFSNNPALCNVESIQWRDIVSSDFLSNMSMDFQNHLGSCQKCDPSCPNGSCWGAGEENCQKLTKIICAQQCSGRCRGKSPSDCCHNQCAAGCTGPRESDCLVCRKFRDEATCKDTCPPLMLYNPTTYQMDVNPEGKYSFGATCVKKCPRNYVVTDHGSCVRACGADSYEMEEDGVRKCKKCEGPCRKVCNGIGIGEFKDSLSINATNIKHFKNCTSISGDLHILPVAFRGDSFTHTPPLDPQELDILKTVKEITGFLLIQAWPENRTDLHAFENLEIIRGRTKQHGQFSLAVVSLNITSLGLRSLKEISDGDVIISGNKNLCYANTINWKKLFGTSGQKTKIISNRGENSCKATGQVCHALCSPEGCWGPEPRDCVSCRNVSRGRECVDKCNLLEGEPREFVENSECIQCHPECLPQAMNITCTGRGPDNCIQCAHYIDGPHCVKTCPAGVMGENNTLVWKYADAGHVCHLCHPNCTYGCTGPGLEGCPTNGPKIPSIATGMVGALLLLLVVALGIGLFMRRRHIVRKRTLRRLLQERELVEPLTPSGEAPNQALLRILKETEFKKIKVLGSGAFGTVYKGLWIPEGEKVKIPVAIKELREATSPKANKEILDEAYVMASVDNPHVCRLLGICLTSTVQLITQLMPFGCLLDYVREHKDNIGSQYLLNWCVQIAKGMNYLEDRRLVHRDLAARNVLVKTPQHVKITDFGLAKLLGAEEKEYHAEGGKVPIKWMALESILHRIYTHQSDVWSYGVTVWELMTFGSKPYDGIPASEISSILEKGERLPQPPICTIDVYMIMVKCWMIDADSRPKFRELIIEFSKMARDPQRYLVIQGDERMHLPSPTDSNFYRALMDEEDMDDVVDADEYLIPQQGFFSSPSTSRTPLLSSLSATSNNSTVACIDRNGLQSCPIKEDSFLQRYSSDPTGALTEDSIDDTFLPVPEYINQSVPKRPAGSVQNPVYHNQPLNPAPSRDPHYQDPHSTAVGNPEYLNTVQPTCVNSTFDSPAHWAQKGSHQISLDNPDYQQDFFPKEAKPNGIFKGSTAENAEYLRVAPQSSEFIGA
EGFR-TK in A431 cell membranes, sequence (P00533 25-1210): as above

IC50 (EGFR-TK [1])	melting point [°C]	Structure (SMILES)	further results
113 nM and 41.5 nM	64 to 67	CCOc1cc2ncnc(Oc3cccc(I)c3)c2cc1OCCCN(C)C [6d, 6-(3-Dimethylaminopropoxy)-7-ethoxy-4-(3′-iodophenoxy) quinazoline]	
16.5 ± 1.8 nM		CCOc1cc2ncnc(Oc3cccc(I)c3)c2cc1OCCCN1CCN(C)CC1 [6b, 6-[3-(4-Methylpiperazinylpropoxy)]-7-ethoxy-4-(3′-iodophenoxy)quinazoline]	
41.5 nM and 113 nM	59 to 62	CCOc1cc2ncnc(Oc3cccc(I)c3)c2cc1OC(C)C [6c, 6-Isopropoxy-7-ethoxy-4-(3′-iodophenoxy)quinazoline]	
> 500 nM	140 to 142	CCOc1cc2ncnc(Oc3cccc(I)c3)c2cc1OCc1ccccc1 [6f, 6-Benzyloxy-7-ethoxy-4-(3′-iodophenoxy)quinazoline]	
> 500 nM	108 to 109	CCOc1cc2ncnc(Oc3cccc(I)c3)c2cc1OCCCc1ccccc1 [6e, 6-(3-Phenylpropoxy)-7-ethoxy-4-(3′-iodophenoxy)quinazoline]	

The next lines start with the molecule.

Structure (SMILES)	IC50 (EGFR-TK [1])	melting point [°C]	further results
CCOc1cc2ncnc(Nc3cccc(I)c3)c2cc1OCC [m-IPQ, 4-(3-Iodoanilino)-6,7-diethoxyquinazoline]			blocking effect on [125I]PYK binding to EGFR-TK (EGFR-TK [2]): significant reduction; IC50 (EGFR-TK [3]): 50.5 ± 3.5 nM
CCOc1cc2ncnc(Oc3cccc([125I])c3)c2cc1OCC [[^125I]PHY]			accumulation in tumors (A431 tumor): 0.56 ± 0.12 % ID/g tissue; tumor-to-blood ratio [4]: 0.94–1.50; tumor-to-muscle ratio [4]: 1.02–1.95
CCOc1cc2ncnc(Oc3cccc(I)c3)c2cc1OCCCN1CCOCC1 [[^125I]PYK]			Kd [5]: 51.3 ± 11.1 nM
COc1cc2ncnc(Nc3cccc(Br)c3)c2cc1OC [PD153035, 4-(3-bromoanilino)-6,7-dimethoxyquinazoline]			IC50 [6]: 0.029 nM
O=P(O)(O)C(O)c1ccc2ccccc2c1 (centres unmarked) [HNMPA]			blocking effect on [125I]PYK binding to EGFR-TK (EGFR-TK [2]): failed to block
CCOc1cc2ncnc(Oc3cccc(I)c3)c2cc1OCC [PHY, 4-(3-Iodophenoxy)-6,7-diethoxyquinazoline, reference compound]	49 ± 7.2 nM		IC50 (EGFR-TK [3]): 49 ± 7.2 nM
CCOc1cc2ncnc(Oc3cccc(I)c3)c2cc1OCCCN1CCOCC1 [6a, 6-(3-Morpholinopropoxy)-7-ethoxy-4-(3′-iodophenoxy)quinazoline]	12 ± 3.9 nM	135 to 137	
CCOc1cc2ncnc(Oc3cccc([125I])c3)c2cc1OCCCN(C)C [[^125I]6d]			retention in tumors (in words) (A431 tumor; 24 h after injection): low retention; accumulation in tumors (A431 tumor): 0.55 ± 0.12 % ID/g tissue
